From the supplement of paper PMC10307832

Assays:
Test in all cases: relative viability (nuclei count vs DMSO), 5 days (fraction); higher = more cells survive
Ibrutinib + Decitabine = compound: C=CC(=O)N1CCC[C@@H](n2nc(-c3ccc(Oc4ccccc4)cc3)c3c(N)ncnc32)C1 [Ibrutinib] + Nc1ncn([C@H]2C[C@H](O)[C@@H](CO)O2)c(=O)n1 [Decitabine] (partner 2 µM)
Procedure, shortened: (§1)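 Relative viability equals treated-well nuclei counts divided by vehicle-well nuclei counts. Counts came from 4× images of lung cancer cell lines grown in 1536-well plates for 5 days after pin-tool dosing on the day after seeding. Dosing used one drug alone or a fixed anchor-drug dose plus five library-drug doses (not always all listed) in √10 steps, and values are medians of duplicate plates.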

Ibrutinib + Crizotinib = compound: C=CC(=O)N1CCC[C@@H](n2nc(-c3ccc(Oc4ccccc4)cc3)c3c(N)ncnc32)C1 [Ibrutinib] + C[C@@H](Oc1cc(-c2cnn(C3CCNCC3)c2)cnc1N)c1c(Cl)ccc(F)c1Cl [Crizotinib] (partner 1 µM)
Procedure, shortened: as §1

PAC-1 + Linsitinib = compound: C=CCc1cccc(/C=N/NC(=O)CN2CCN(Cc3ccccc3)CC2)c1O [PAC-1] + C[C@]1(O)C[C@@H](c2nc(-c3ccc4ccc(-c5ccccc5)nc4c3)c3c(N)nccn32)C1 [Linsitinib] (partner 1 µM)
Procedure, shortened: as §1

PAC-1 + Tozasertib = compound: C=CCc1cccc(/C=N/NC(=O)CN2CCN(Cc3ccccc3)CC2)c1O [PAC-1] + Cc1cc(Nc2cc(N3CCN(C)CC3)nc(Sc3ccc(NC(=O)C4CC4)cc3)n2)n[nH]1 [Tozasertib] (partner 0.1 µM)
Procedure, shortened: as §1

Cell Line	relative viability (Ibrutinib + Decitabine; first compound 0.005 µM)	relative viability (Ibrutinib + Decitabine; first compound 0.01581 µM)	relative viability (Ibrutinib + Decitabine; first compound 0.05 µM)	relative viability (Ibrutinib + Decitabine; first compound 0.1581 µM)	relative viability (Ibrutinib + Decitabine; first compound 0.5 µM)	relative viability (Ibrutinib + Crizotinib; first compound 0.005 µM)	relative viability (Ibrutinib + Crizotinib; first compound 0.01581 µM)	relative viability (Ibrutinib + Crizotinib; first compound 0.05 µM)	relative viability (Ibrutinib + Crizotinib; first compound 0.1581 µM)	relative viability (Ibrutinib + Crizotinib; first compound 0.5 µM)	relative viability (PAC-1 + Linsitinib; first compound 0.02 µM)	relative viability (PAC-1 + Linsitinib; first compound 0.06325 µM)	relative viability (PAC-1 + Linsitinib; first compound 0.2 µM)	relative viability (PAC-1 + Linsitinib; first compound 2 µM)	relative viability (PAC-1 + Tozasertib; first compound 0.02 µM)	relative viability (PAC-1 + Tozasertib; first compound 0.06325 µM)	relative viability (PAC-1 + Tozasertib; first compound 0.2 µM)	relative viability (PAC-1 + Tozasertib; first compound 2 µM)
NCI-H23	0.313	0.343	0.339	0.298	0.339	0.539	0.528	0.527	0.592	0.466	0.534	0.574	0.564	0.505	0.323	0.384	0.366	0.383
NCI-H322M	0.662	0.637	0.664	0.634	0.505	0.964	0.848	0.887	1.03	0.608	0.907	0.889	0.817	0.928	0.496	0.537	0.467	0.477
NCI-H358	0.176	0.204		0.232	0.136	0.706	0.45	0.401	0.682	0.303	0.657	0.786	0.709	0.506	0.103	0.101	0.0952	0.109
NCI-H441	0.255	0.241	0.231	0.211	0.25	0.669	0.842	0.919	0.707	0.881	0.519	0.571	0.496	0.564	0.754	0.597	0.505	0.606
NCI-H460	0.541	0.419	0.503	0.497	0.551	1.11	0.614	1.04		1.12	0.701	0.81	0.78	0.405	0.356	0.453	0.394	0.542
NCI-H520	0.447	0.512	0.497	0.606	0.498	0.725	0.578	0.727	0.704	0.861	0.944	0.92	1	0.861	0.461	0.468	0.407	0.393
NCI-H596	1.12	1.1	1.88	0.936	0.942	0.974	0.955	0.903	0.803	0.747	0.891	0.977	1.08	1.03	0.903	0.885	0.857	1.01
NCI-H647	0.341	0.331	0.411	0.244	0.409	1.03	1.07	1.13	1.06	0.993	1.05	1.19	1.2	0.807	0.336	0.403	0.256	0.242
NCI-H650	0.384	0.325	0.335	0.37	0.319		0.656		0.863	0.805	0.887	0.912	0.761	0.676	0.73	0.791	0.749	0.721
NCI-H661	0.498	0.489	0.428	0.471	0.381			1.09	0.904	0.873	0.432	0.561	0.52	0.532	0.364	0.332	0.348	0.331
NCI-H727	0.617	1.04	0.806	0.506	0.804	0.74	0.616	0.71	0.868	0.617	0.281	0.283	0.272	0.317	0.679	0.585	0.589	0.602
NCI-H838	0.552	0.466	0.497	0.476	0.451	0.881	0.842	0.979	0.873	0.793	1.02	0.982	0.925	1.15	0.283	0.239	0.262	0.279
NCI-H1355		0.355	0.367	0.318	0.363		0.957	0.971	1.15	0.827	0.74	0.89	0.806	0.803	0.536	0.568	0.569	0.564
NCI-H1437	0.59	0.559	0.507	0.609	0.53	0.848	0.874	0.901	1.02	0.916	0.986	1.02	0.911	0.71	0.395	0.391	0.378	0.378
NCI-H1651	0.426	0.693	0.56	0.465	0.53	0.952	0.871	0.819	0.818	0.88	0.823	0.933	0.992	1.12	0.615	0.786	0.631	0.65
NCI-H1666	0.569	0.782	0.666	0.663	0.632	1.01	0.864	0.904	0.932	0.697	0.986	0.789	0.983	0.891	0.553	0.605	0.615	0.544
